According to patent US20260042764A1, “COMPOSITIONS AND METHODS FOR INHIBITION OF KRAS” (TheRas, Inc., priority 2022, published 2026):

What was measured:
[1] = molecular target: T1, Avi-KRAS G12R (1-169) GppNHp/RAF1 RBD-3xFLAG (52-151) (Homo sapiens, UniProt P01116, G12R); assay: Raf1-KRAS G12R-GppNHP disruption HTRF assay (Biological Example 1); type: binding
T1 construct: Avi-KRAS G12R (1-169)
Procedure, shortened: (§1)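 Measured with a KRAS/RAF1 HTRF assay at pH 7.5 in 10% DMSO, with two 1 h room-temperature incubations with shaking.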

[2] = molecular target: T2, Avi-KRAS WT (1-169) GppNHp/RAF1 RBD-3xFLAG (52-151) (Homo sapiens, UniProt P01116); assay: Raf1-KRAS WT-GppNHP disruption HTRF assay (Biological Example 1); type: binding
T2 construct: Avi-KRAS WT (1-169)
Procedure, shortened: as §1

GP2d cells (KRAS G12D) = assay: Cell-based pERK HTRF assay in GP2d cell (Biological Example 2); conditions: GP2d (KRAS G12D) cells, pERK HTRF
Procedure, shortened: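 Cells grown in DMEM with 10% FBS were exposed to compound for 60 min at 0.25% DMSO, using a 9-point half-log series starting at 1 μM or 100 nM. Lysates were then mixed with d2 and Eu cryptate antibodies for 4–24 h at room temperature, and pERK was read by HTRF.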

[3] = molecular target: T3, Avi-KRAS G12V (1-169) GppNHp/RAF1 RBD-3xFLAG (52-151) (Homo sapiens, UniProt P01116, G12V); assay: Raf1-KRAS G12V-GppNHP disruption HTRF assay (Biological Example 1); type: binding
T3 construct: Avi-KRAS G12V (1-169)
Procedure, shortened: as §1

SW620 cells (KRAS G12V) = assay: Cell-based pERK HTRF assay in SW620 cell (Biological Example 4); conditions: pERK HTRF
Procedure: A pERK assay (Perkin Elmer) was used to determine the effectiveness of compounds in disrupting KRAS G12V protein/effector signaling in cells.
On Day 1, cells (SW620) were seeded into 96-well plates at 3×10^4 cells/well in 80 μL complete growth media (RPMI, 10% FBS).
On Day 2, cells were treated with compounds at 0.25% DMSO. The source plate was created with compounds diluted in media at 5-fold the final assay concentration. The compounds were run in a 9-point concentration curve starting at 1 μM, with a half-log dilution between concentrations. Twenty μL was transferred onto the cell plates (final volume in wells was 100 μL). Plates were harvested after 4 h incubation by aspirating media and adding kit-supplied 1x supplemented lysis buffer to all wells (50 μL per well). Plates were then placed on a plate shaker and incubated at 850 rpm for an additional 30 min.
Antibody mixture solution was prepared by diluting aliquoted d2 and Eu Cryptate antibodies 1:20 in kit supplied detection buffer and mixing the diluted antibodies solutions (1:1 v:v).
Samples were homogenized by pipetting up and down and then transferred (16 μL of cell lysates) from the 96-well cell culture plate to two wells of the HTRF 384-well detection plate containing the antibody solution. Plates were centrifuged (524 g for Imin) and allowed to incubate between 4 and 24 h at room temperature. […] Plates were centrifuged again (524 g for 1 min), then analyzed on the En Vision plate reader using the following settings: Excitation 320 nm, Bandwidth 75 nm; Emission 615 nm, Bandwidth 85 nm; Gain 100%; Flashes 100; Lag 60 μs.

[4] = molecular target: T4, Avi-KRAS G12D (1-169) GppNHp/RAF1 RBD-3xFLAG (52-151) (Homo sapiens, UniProt P01116, G12D); assay: Raf1-KRAS G12D-GppNHP disruption HTRF assay (Biological Example 1); type: binding
T4 construct: Avi-KRAS G12D (1-169)
Procedure, shortened: as §1

[5] = Homo sapiens, SW-620, SW620 (KRAS G12V) cells
[6] = KRAS G12R, GppNHp-loaded, Table 11
[7] = KRAS WT, GppNHp-loaded, Table 11
[8] = KRAS G12V, GppNHp-loaded, Table 11
[9] = KRAS G12D, GppNHp-loaded, Table 11

T4 sequence (P01116 1-169 isoform P01116-2 G12D): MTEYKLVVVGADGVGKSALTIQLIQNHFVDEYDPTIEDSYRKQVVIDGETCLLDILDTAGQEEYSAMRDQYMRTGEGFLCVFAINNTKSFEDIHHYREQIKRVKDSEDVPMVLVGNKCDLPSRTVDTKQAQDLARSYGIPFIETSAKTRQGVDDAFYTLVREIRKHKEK
T2 sequence (P01116 1-169 isoform P01116-2): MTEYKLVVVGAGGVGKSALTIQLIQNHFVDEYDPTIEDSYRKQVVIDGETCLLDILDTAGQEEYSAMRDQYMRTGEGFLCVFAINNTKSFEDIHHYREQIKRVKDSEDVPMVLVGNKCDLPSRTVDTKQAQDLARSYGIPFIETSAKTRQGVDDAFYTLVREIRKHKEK
T1 sequence (P01116 1-169 isoform P01116-2 G12R): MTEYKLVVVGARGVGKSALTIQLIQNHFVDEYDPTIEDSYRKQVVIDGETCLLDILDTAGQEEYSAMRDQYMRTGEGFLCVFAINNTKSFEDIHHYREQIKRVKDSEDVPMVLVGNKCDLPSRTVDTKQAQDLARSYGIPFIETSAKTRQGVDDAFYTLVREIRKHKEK
T3 sequence (P01116 1-169 isoform P01116-2 G12V): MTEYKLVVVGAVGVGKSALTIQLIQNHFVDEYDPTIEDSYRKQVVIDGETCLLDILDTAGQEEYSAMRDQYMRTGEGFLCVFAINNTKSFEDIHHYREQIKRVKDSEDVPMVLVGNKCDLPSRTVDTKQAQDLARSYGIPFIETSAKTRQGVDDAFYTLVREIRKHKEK

Compound	IC50 ([1]; KRAS G12R-GppNHp/RAF1 RBD HTRF) [nM]	IC50 ([2]; KRAS WT-GppNHp/RAF1 RBD HTRF) [nM]	IC50 (GP2d cells (KRAS G12D); GP2d) [nM]	IC50 ([3]; KRAS G12V-GppNHp/RAF1 RBD HTRF) [nM]	IC50 (SW620 cells (KRAS G12V); [5]) [nM]	IC50 ([4]; KRAS G12D-GppNHp/RAF1 RBD HTRF) [nM]	IC50 [1, 6] [nM]	IC50 [2, 7] [nM]	IC50 [3, 8] [nM]	IC50 [4, 9] [nM]	further results
CCC(=O)N1CC[C@@H](N(CC)c2nc(OC[C@@]34CCCN3C[C@H](F)C4)nc3c(F)c(-c4ccc(F)c5sc(N)c(C#N)c45)c(Cl)cc23)[C@@H]1C [Compound 417]	1000 to 10000	100 to 1000	< 100	1000 to 10000	100 to 1000	100 to 1000	–	–	–	–	–
CN(c1nc(OC[C@@]23CCCN2C[C@H](F)C3)nc2c(F)c(-c3ccc(F)c4sc(N)c(C#N)c34)c(C(F)(F)F)cc12)[C@]1(CC#N)C[C@@H](O)C1 (atropisomer, axis not shown) [Compound 254]	–	–	–	–	–	–	1000 to 10000	100 to 1000	1000 to 10000	100 to 1000	IC50 (GP2d cells (KRAS G12D)): 100 to 1000 nM; IC50 (SW620 cells (KRAS G12V); SW620 (KRAS G12V) cells): > 1000 nM
N#Cc1c(N)sc2c(F)ccc(-c3c(C(F)(F)F)cc4c(N5C6COCC5C6)nc(OC[C@@]56CCCN5C[C@H](F)C6)nc4c3F)c12 [Compound 202]	–	–	< 100	–	< 100	–	100 to 1000	100 to 1000	100 to 1000	100 to 1000	–
C[C@H]1CN(c2nc(OC[C@@]34CCCN3C[C@H](F)C4)nc3c(F)c(-c4ccc(F)c5sc(N)c(C#N)c45)c(C(F)(F)F)cc23)Cc2cc(C(=O)N(C)C)nn21 [Compound 402]	100 to 1000	1000 to 10000	< 100	100 to 1000	< 100	100 to 1000	–	–	–	–	–
CC(=O)N1C[C@@H](N(C)c2nc(OC[C@@]34CCCN3C[C@H](F)C4)nc3c(F)c(-c4ccc(F)c5sc(N)c(C#N)c45)c(C(F)(F)F)cc23)C[C@@H]1C [Compound 279]	100 to 1000	100 to 1000	< 100	100 to 1000	< 100	< 100	–	–	–	–	–
N#Cc1c(N)sc2c(F)ccc(-c3c(C(F)(F)F)cc4c(N5C[C@@H]6C[C@H]5CO6)nc(OC[C@@]56CCCN5C[C@H](F)C6)nc4c3F)c12 [Compound 259]	–	–	< 100	–	< 100	–	100 to 1000	100 to 1000	1000 to 10000	100 to 1000	–
CCN(c1nc(OC[C@@]23CCCN2C[C@H](F)C3)nc2c(F)c(-c3ccc(F)c4sc(N)c(C#N)c34)c(C(F)(F)F)cc12)[C@H]1CCN(C(=O)N2CC3(CC3)C2)C1 (atropisomer, axis not shown) [Compound 793]	–	–	–	–	–	–	–	–	–	–	IC50 ([1]; KRAS G12R, GppNHp-loaded, class symbols): < 100 nM; IC50 ([2]; KRAS WT, GppNHp-loaded, class symbols): < 100 nM; IC50 (GP2d cells (KRAS G12D); GP2d, class symbols): < 100 nM; IC50 ([3]; KRAS G12V, GppNHp-loaded, class symbols): < 100 nM; IC50 (SW620 cells (KRAS G12V); Homo sapiens, SW-620, SW620 (KRAS G12V) cells, class symbols): < 100 nM; IC50 ([4]; KRAS G12D, GppNHp-loaded, class symbols): < 100 nM

Second part, led by results:

IC50 ([1]; KRAS G12R-GppNHp/RAF1 RBD HTRF) [nM]	IC50 ([2]; KRAS WT-GppNHp/RAF1 RBD HTRF) [nM]	IC50 (GP2d cells (KRAS G12D); GP2d) [nM]	IC50 ([3]; KRAS G12V-GppNHp/RAF1 RBD HTRF) [nM]	IC50 (SW620 cells (KRAS G12V); [5]) [nM]	IC50 ([4]; KRAS G12D-GppNHp/RAF1 RBD HTRF) [nM]	IC50 [1, 6] [nM]	IC50 [2, 7] [nM]	IC50 [3, 8] [nM]	IC50 [4, 9] [nM]	Compound	further results
1000 to 10000	100 to 1000	< 100	1000 to 10000	< 100	1000 to 10000	–	–	–	–	CCN(c1nc(OC[C@@]23CCCN2C[C@H](F)C3)nc2c(F)c(-c3ccc(F)c4sc(N)c(C#N)c34)c(C(F)(F)F)cc12)[C@@H]1C[C@@H](C)N(C(=O)N(C)C)C1 (atropisomer, axis not shown) [Compound 525]	–
< 100	< 100	< 100	< 100	< 100	< 100	–	–	–	–	CCN(c1nc(OC[C@@]23CCCN2C[C@H](F)C3)nc2c(F)c(-c3ccc(F)c4sc(N)c(C#N)c34)c(C(F)(F)F)cc12)[C@H]1CCN(C(=O)C2(C#N)CC2)C1 [Compound 560]	–
1000 to 10000	1000 to 10000	–	1000 to 10000	–	100 to 1000	–	–	–	–	N#Cc1c(N)sc2c(F)ccc(-c3c(C(F)(F)F)cc4c(N5CCCN6C(=O)CCC6C5)nc(OCC56CCCN5CC(F)C6)nc4c3F)c12 (stereo not drawn) [Compound 490]	IC50 (GP2d cells (KRAS G12D)): 100 to 1000 nM; IC50 (SW620 cells (KRAS G12V); SW620 (KRAS G12V) cells): 100 to 1000 nM
